Read-outs that look alike come from different tables or passages of the source.
Key:
[1] = molecular target: T1, IGF-1R (human cytoplasmic domain fused with GST) (Homo sapiens, UniProt P08069); assay: Kinase IGF-1R test (Test A): inhibition of autophosphorylation of the enzyme, HTRF; type: biochemical; details: 120 μM ATP
T1 construct: The human cytoplasmic domain of IGF-1R was cloned by fusion with glutathione S-transferase (GST); made in house; host or cells: SF21 insect cells (baculovirus, pFastBac-GST)
Protocol: A) Experimental Protocol for the Kinase IGF-1R Test:
The inhibitory activity of the compounds on IGF1R is determined by measuring the inhibition of autophosphorylation of the enzyme using a time-resolved fluorescence test (HTRF). The human cytoplasmic domain of IGF-1R was cloned by fusion with glutathione S-transferase (GST) in the baculovirus expression vector pFastBac-GST. The protein is expressed in the SF21 cells and purified to about 80% homogeneity. For the enzymatic test, the test compound at 10 mM dissolved in DMSO is diluted in 1/3 steps in a 50 mM Hepes, pH 7.5, 5 mM MnCl2, 50 mM NaCl, 3% Glycerol, 0.025% Tween 20 buffer. To measure the inhibition, the successive dilutions of the compound are preincubated for 30 minutes and 90 minutes in the presence of 5 nM of enzyme, the final DMSO concentration not exceeding 1%. The enzymatic reaction is initiated to have a final ATP concentration of 120 μM, and is stopped after 5 minutes by addition of 100 mM Hepes, pH 7.0 buffer containing 0.4 M of potassium fluoride, 133 mM EDTA, 0.1% BSA, the XL665-labelled antibody anti-GST and the anti-phosphotyrosine antibody conjugated to europium cryptate Eu—K (Cis-Bio Int.). The characteristics of the two fluorophores, XL-665 and Eu—K, are available in G. Mathis et al., Anticancer Research, 1997, 17, pages 3011-3014. The energy transfer between the excited europium cryptate to the acceptor XL665 is proportional to the degree of autophosphorylation of IGF-1R. The specific long-lasting signal of XL-665 is measured in a GENios Pro TECAN plate counter. The inhibition of autophosphorylation of IGF-1R at time 30 minutes and 90 minutes with the test compounds of the invention is calculated relative to a 1% in DMSO control, whose activity is measured in the absence of compound. The curve representing the percentage of inhibition as a function of the log of the concentration is established to determine the concentration corresponding to 50% inhibition (IC50).

IGF1R in MCF-7 cells = molecular target: T2, IGF1R in MCF-7 cells (Homo sapiens, UniProt P08069); assay: Autophosphorylation of IGF-1R in MCF7 cells after stimulation with IGF-1 (Test B), ELISA; type: cell-based; details: compound added one hour before IGF1 stimulation (10 minutes)
T2 construct: endogenous in cells; host or cells: MCF-7 cells
Protocol: B) Measurement of the Autophosphorylation of IGF-1r in MCF7 Cells after Stimulation with IGF-1
Cell Culturing and Execution of the Test:
The autophosphorylation of IGF1R in the IGF1-induced cells is evaluated by means of an ELISA technique (Enzyme Linked ImmunoSorbent Assay). The MCF-7 are seeded at 60 000 cells per well in 6-well plates and incubated at 37° C., 5% CO2 in medium containing 10% serum. After one night in 10% serum, the cells are deprived of serum for 24 hours. The compounds are added to the medium one hour before stimulation with IGF1. After 10 minutes of stimulation with IGF1, the cells are lysed with a buffer (Hepes 50 mM pH 7.6, Triton X100 1%, orthovanadate 2 mM, protease inhibitor cocktail). The cell lysates are incubated on a 96-well plate precoated with an anti-IGF1R antibody, followed by incubation with an anti-phosphotyrosine antibody coupled to the enzyme peroxidase. The level of peroxidase activity (measured by OD with a luminescent substrate) reflects the phosphorylation status of the receptor.
(§1) (i) The tests are performed in duplicate and the mean of the two tests is calculated.
(§2) (ii) The value of the signal of the maximum response is calculated from the positive control: cells stimulated with IGF1 without compound.
(§3) (iii) Value of the signal of the minimum response is calculated from the negative control: cells not stimulated with IGF1 without compound.
(§4) (iv) By using these values as maximum (100%) and minimum (0%), respectively, the data were normalized so as to give a percentage of the maximum response.
(§5) (v) A curve of dose response is plotted and the IC50 (the concentration of which the compound induces a 50% decrease in the signal) of the compound is calculated by non-linear regression analysis.

[2] = molecular target: MEF-IGF1R cells (stable clone transfected with hIGF-1R) (Homo sapiens, UniProt P08069); assay: Proliferation/viability of MEF-IGF1R (Test C), [14C]thymidine incorporation; type: cell-based; details: rhIGF1 100 ng/mL, 72 hours, read-out: Test C IC50
Protocol: C) Measurement of the Proliferation/Viability of MEF-IGF1R
Cell culture: the MEF-IGF1R cells (stable clone of cells transfected with the receptor hIGF-1R) are cultured at 37° C. under 5% CO2 in EMEM medium containing 10% FCS.
Test procedure: the cells are seeded at 5000 cells per well in 96-well Cytostar plates (Amersham) with 0.2 mL of EMEM culture medium at 37° C. for 18 hours. The cells are then washed twice with EMEM medium and left to culture without serum for 24 hours. The compounds are then added at various concentrations in the presence of rhIGF1 (100 ng/mL) and 0.1 μCi of Thymidine [^14C] (specific activity ˜50 mCi/mmol) to give 0.2 mL of volume per well. After incubation for 72 hours in the presence of the compound, at 37° C. under 5% CO2, the incorporation of Thymidine [^14C] is measured by counting the radioactivity on a Microbeta trilux counter (Perkin-Elmer). The IC50 is determined from 10 increasing concentrations of the compound.
as §1, §2, §3, §4, §5

[3] = preincubation with enzyme 30 minutes, read-out: Test A 30′ IC50
[4] = preincubation with enzyme 90 minutes, read-out: Test A 90′ IC50

T2 sequence (P08069 31-1367): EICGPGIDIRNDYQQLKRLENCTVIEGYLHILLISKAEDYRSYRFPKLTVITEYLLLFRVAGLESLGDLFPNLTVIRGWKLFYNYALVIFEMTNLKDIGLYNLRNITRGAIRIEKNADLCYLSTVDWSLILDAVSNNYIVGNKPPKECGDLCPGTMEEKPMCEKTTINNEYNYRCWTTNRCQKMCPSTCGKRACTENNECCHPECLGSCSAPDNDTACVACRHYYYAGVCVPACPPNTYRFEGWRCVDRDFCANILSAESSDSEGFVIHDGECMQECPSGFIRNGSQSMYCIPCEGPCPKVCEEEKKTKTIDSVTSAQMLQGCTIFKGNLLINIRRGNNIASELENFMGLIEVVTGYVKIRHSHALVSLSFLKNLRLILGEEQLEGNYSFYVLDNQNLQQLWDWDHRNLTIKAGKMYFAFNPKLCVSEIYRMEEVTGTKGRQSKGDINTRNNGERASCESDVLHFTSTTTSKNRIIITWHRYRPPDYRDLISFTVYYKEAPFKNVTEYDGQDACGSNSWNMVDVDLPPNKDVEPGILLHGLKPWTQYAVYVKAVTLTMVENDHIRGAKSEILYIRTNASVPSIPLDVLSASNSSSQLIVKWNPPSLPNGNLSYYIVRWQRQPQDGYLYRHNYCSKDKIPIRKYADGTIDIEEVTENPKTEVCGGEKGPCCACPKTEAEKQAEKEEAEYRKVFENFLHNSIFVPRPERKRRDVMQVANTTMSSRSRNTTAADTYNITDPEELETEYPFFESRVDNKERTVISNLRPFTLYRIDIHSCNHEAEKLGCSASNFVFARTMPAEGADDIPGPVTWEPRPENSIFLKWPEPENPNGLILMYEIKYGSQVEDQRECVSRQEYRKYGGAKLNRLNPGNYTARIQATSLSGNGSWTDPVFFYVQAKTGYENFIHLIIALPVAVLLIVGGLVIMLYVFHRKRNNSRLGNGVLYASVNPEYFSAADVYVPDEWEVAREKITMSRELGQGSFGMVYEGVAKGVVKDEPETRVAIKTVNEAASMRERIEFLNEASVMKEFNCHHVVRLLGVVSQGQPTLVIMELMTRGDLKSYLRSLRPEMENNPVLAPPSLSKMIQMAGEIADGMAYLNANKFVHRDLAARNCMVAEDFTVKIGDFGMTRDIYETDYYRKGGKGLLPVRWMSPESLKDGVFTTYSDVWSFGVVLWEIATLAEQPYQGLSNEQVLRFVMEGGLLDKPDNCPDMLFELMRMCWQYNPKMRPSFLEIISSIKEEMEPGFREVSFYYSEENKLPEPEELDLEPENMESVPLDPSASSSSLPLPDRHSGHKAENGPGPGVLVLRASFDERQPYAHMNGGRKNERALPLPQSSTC
Chain of MEF-IGF1R cells (stable clone transfected with hIGF-1R) (P08069 whole entry, change not shown): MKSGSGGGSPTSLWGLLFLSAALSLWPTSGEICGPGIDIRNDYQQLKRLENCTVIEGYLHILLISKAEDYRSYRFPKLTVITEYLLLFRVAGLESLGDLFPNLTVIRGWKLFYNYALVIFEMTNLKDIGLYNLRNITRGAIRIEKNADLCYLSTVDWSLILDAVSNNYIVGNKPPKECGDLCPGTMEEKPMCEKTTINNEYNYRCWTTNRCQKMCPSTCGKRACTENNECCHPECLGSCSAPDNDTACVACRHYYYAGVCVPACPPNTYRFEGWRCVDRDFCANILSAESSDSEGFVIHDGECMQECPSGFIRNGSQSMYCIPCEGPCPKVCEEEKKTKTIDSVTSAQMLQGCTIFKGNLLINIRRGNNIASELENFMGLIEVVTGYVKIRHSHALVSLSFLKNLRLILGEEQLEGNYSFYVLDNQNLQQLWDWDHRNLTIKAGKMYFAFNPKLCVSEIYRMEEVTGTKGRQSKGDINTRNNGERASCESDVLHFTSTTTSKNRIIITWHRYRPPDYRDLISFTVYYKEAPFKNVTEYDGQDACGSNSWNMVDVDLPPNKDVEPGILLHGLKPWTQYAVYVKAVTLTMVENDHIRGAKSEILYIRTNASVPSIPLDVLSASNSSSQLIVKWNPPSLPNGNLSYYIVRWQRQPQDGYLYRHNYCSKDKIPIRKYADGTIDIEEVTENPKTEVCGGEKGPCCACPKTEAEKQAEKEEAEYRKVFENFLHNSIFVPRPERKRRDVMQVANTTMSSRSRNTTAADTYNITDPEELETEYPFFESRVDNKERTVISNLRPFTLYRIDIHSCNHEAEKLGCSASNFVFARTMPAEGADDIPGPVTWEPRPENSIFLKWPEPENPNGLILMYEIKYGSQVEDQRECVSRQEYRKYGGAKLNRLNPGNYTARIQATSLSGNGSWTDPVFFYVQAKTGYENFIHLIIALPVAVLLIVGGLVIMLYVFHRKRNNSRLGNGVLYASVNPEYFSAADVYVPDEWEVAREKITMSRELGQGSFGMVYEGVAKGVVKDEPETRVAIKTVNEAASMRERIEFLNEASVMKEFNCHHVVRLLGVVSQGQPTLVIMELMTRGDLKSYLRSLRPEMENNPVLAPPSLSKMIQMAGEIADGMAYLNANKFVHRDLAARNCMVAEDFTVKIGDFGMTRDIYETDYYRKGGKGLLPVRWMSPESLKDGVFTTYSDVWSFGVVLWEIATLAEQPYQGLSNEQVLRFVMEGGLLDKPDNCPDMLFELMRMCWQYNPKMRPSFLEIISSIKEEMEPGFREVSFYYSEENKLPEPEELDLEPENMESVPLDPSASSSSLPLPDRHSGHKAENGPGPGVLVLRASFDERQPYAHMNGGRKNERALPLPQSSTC
T1 sequence (P08069 960-1367 limits assumed): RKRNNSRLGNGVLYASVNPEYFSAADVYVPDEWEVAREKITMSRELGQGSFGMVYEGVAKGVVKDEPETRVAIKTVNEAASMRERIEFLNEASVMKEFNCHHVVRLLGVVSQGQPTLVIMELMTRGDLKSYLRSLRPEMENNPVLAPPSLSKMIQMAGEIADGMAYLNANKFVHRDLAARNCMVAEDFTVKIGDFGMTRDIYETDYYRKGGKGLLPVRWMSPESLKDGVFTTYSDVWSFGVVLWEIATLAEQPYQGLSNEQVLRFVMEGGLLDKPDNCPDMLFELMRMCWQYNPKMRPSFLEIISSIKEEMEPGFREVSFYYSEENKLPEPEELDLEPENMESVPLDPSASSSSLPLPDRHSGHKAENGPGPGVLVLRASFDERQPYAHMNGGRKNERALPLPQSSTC

Compound	IC50 [1, 3]	IC50 [1, 4]	IC50 (IGF1R in MCF-7 cells)	GI50 [2]
CC(C)(C)c1ccc(N2C(=O)N(Cc3ccnc(NC(=O)NC4CC4)c3)C(C)(C)C2=O)cc1 [Example 13, 1-(4-{[3-(4-tert-butylphenyl)-5,5-dimethyl-2,4-dioxoimidazolidin-1-yl]methyl}pyridin-2-yl)-3-cyclopropylurea]	10 to 100 nM	10 to 100 nM	10 to 100 nM	10 to 100 nM
CC(C)(C)c1ccc(N2C(=O)N(Cc3ccnc(NC(=O)NC4CCC4)c3)C(C)(C)C2=O)cc1 [Example 14, 1-(4-{[3-(4-tert-butylphenyl)-5,5-dimethyl-2,4-dioxoimidazolidin-1-yl]methyl}pyridin-2-yl)-3-cyclobutylurea]	10 to 100 nM	10 to 100 nM	10 to 100 nM	10 to 100 nM
CC(C)(C)c1ccc(N2C(=O)N(Cc3ccnc(NC(=O)N4CCC4)c3)C(C)(C)C2=O)cc1 [Example 18, N-(4-{[3-(4-tert-butylphenyl)-5,5-dimethyl-2,4-dioxoimidazolidin-1-yl]methyl}pyridin-2-yl)azetidine-1-carboxamide]	10 to 100 nM	10 to 100 nM	< 10 nM	10 to 100 nM
CC(C)(C)c1ccc(N2C(=O)N(Cc3ccnc(NC(=O)N4CCCC4)c3)C(C)(C)C2=O)cc1 [Example 19, N-(4-{[3-(4-tert-butylphenyl)-5,5-dimethyl-2,4-dioxoimidazolidin-1-yl]methyl}pyridin-2-yl)pyrrolidine-1-carboxamide]	10 to 100 nM	10 to 100 nM	< 10 nM	10 to 100 nM
CCCCNC(=O)Nc1cc(CN2C(=O)N(c3ccc(C(C)(C)C)cc3)C(=O)C2(C)C)ccn1 [Example 28, 1-butyl-3-(4-{[3-(4-tert-butylphenyl)-5,5-dimethyl-2,4-dioxoimidazolidin-1-yl]methyl}pyridin-2-yl)urea]	10 to 100 nM	10 to 100 nM	10 to 100 nM	> 100 nM
CN(C)CC(=O)N1CC(C)(C)c2ccc(N3C(=O)N(Cc4ccnc(Nc5cccnc5)c4)C(C)(C)C3=O)cc21 [Example 31B, 3-[1-(N,N-dimethylglycyl)-3,3-dimethyl-2,3-dihydro-1H-indol-6-yl]-5,5-dimethyl-1-{[2-(pyridin-3-ylamino)pyridin-4-yl]methyl}imidazolidine-2,4-dione]	> 100 nM	10 to 100 nM	10 to 100 nM	< 10 nM
CN(C)CC(=O)N1CC(C)(C)c2ccc(N3C(=O)N(Cc4ccnc(NC(=O)N(C)C)c4)C(C)(C)C3=O)cc21 [Example 31C, 3-[4-({3-[1-(N,N-dimethylglycyl)-3,3-dimethyl-2,3-dihydro-1H-indol-6-yl]-5,5-dimethyl-2,4-dioxoimidazolidin-1-yl}methyl)pyridin-2-yl]-1,1-dimethylurea]	> 100 nM	> 100 nM	10 to 100 nM	10 to 100 nM
CC(C)NCC(=O)N1CC(C)(C)c2ccc(N3C(=O)N(Cc4ccnc(Nc5cccnc5)c4)C(C)(C)C3=O)cc21 [Example 31D, 3-[1-(N-isopropylglycyl)-3,3-dimethyl-2,3-dihydro-1H-indol-6-yl]-5,5-dimethyl-1-{[2-(pyridin-3-ylamino)pyridin-4-yl]methyl}imidazolidine-2,4-dione]	> 100 nM	10 to 100 nM	10 to 100 nM	10 to 100 nM
CC(C)NCC(=O)N1CC(C)(C)c2ccc(N3C(=O)N(Cc4ccnc(NC(=O)N(C)C)c4)C(C)(C)C3=O)cc21 [Example 31E, 3-[4-({3-[1-(N-isopropylglycyl)-3,3-dimethyl-2,3-dihydro-1H-indol-6-yl]-5,5-dimethyl-2,4-dioxoimidazolidin-1-yl}methyl)pyridin-2-yl]-1,1-dimethylurea]	> 100 nM	> 100 nM	10 to 100 nM	10 to 100 nM
CC(C)(C)c1ccc(N2C(=O)N(Cc3ccnc(Nc4ccc(CN5CCCC5)cc4)c3)C(C)(C)C2=O)cc1 [Example 31F, 3-(4-tert-butylphenyl)-5,5-dimethyl-1-[(2-{[4-(pyrrolidin-1-ylmethyl)phenyl]amino}pyridin-4-yl)methyl]imidazolidine-2,4-dione]	10 to 100 nM	< 10 nM	10 to 100 nM	< 10 nM
CC(C)(C)c1ccc(N2C(=O)N(Cc3ccnc(Nc4cccc(CN5CCCC5)c4)c3)C(C)(C)C2=O)cc1 [Example 31G, 3-(4-tert-butylphenyl)-5,5-dimethyl-1-[(2-{[3-(pyrrolidin-1-ylmethyl)phenyl]amino}pyridin-4-yl)methyl]imidazolidine-2,4-dione]	10 to 100 nM	< 10 nM	10 to 100 nM	< 10 nM
CC(C)(C)c1ccc(N2C(=O)N(Cc3ccnc(Nc4cccc(CCN5CCCC5)c4)c3)C(C)(C)C2=O)cc1 [Example 31H, 3-(4-tert-butylphenyl)-5,5-dimethyl-1-[(2-{[3-(2-pyrrolidin-1-ylethyl)phenyl]amino}pyridin-4-yl)methyl]imidazolidine-2,4-dione]	10 to 100 nM	< 10 nM	< 10 nM	< 10 nM
CC(C)(C)c1ccc(N2C(=O)N(Cc3ccnc(Nc4cccc(F)c4)c3)C(C)(C)C2=O)cc1 [Example 31I, 3-(4-tert-butylphenyl)-1-({2-[(3-fluorophenyl)-amino]pyridin-4-yl}methyl)-5,5-dimethylimidazolidine-2,4-dione]	> 100 nM	10 to 100 nM	10 to 100 nM	< 10 nM
CC(C)(C)c1ccc(N2C(=O)N(Cc3ccnc(NC4CC4)c3)C(C)(C)C2=O)cc1 [Example 31J, 3-(4-tert-butylphenyl)-1-{[2-(cyclopropylamino)pyridin-4-yl]methyl}-5,5-dimethylimidazolidine-2,4-dione]	10 to 100 nM	< 10 nM	10 to 100 nM	10 to 100 nM
CC(C)(C)c1ccc(N2C(=O)N(Cc3ccnc(Nc4cccnc4Cl)c3)C(C)(C)C2=O)cc1 [Example 31K, 3-(4-tert-butylphenyl)-1-({2-[(2-chloropyridin-3-yl)amino]pyridin-4-yl}methyl)-5,5-dimethylimidazolidine-2,4-dione]	10 to 100 nM	10 to 100 nM	< 10 nM	10 to 100 nM
CC(C)(C)c1ccc(N2C(=O)N(Cc3ccnc(Nc4ccc(Cl)nc4)c3)C(C)(C)C2=O)cc1 [Example 31L, 3-(4-tert-butylphenyl)-1-({2-[(6-chloropyridin-3-yl)amino]pyridin-4-yl}methyl)-5,5-dimethylimidazolidine-2,4-dione]	> 100 nM	10 to 100 nM	10 to 100 nM	10 to 100 nM

Source: patent publication US7935819B2, “Cyclic urea derivatives, preparation thereof and pharmaceutical use thereof as kinase inhibitors” (Aventis Pharma S.A., priority 2006, dated 2011)
